Numbers after ± are expanded uncertainties.
Details: Crystal, Calculated from knudsen effusion weight loss

OC1c2ccccc2-c2ccccc21 [9H-fluoren-9-ol]
Details | vapor or sublimation pressure [kPa]
326.1 K | 2.1e-05 ± 2.4e-06
327.5 K | 2.44e-05 ± 2.8e-06
329.8 K | 3.15e-05 ± 3.6e-06
331.3 K | 3.74e-05 ± 4.3e-06
334.9 K | 5.12e-05 ± 6.1e-06
340.9 K | 0.000101 ± 1.1e-05
342.6 K | 0.000115 ± 1.3e-05
343.6 K | 0.000123 ± 1.4e-05
344.7 K | 0.000144 ± 1.6e-05
346.1 K | 0.000159 ± 1.8e-05
347.4 K | 0.000186 ± 2.2e-05
351.2 K | 0.000276 ± 3.1e-05
355.1 K | 0.000402 ± 4.5e-05
358.7 K | 0.00056 ± 6.3e-05
361.9 K | 0.00074 ± 8.3e-05
366.1 K | 0.00103 ± 0.00013

c1ccc2c(c1)Oc1ccccc1S2 [phenoxathiin]
Details | vapor or sublimation pressure [kPa]
304.2 K | 8.61e-05 ± 1e-05
308.7 K | 0.000143 ± 1.7e-05
311.4 K | 0.000209 ± 2.3e-05
311.5 K | 0.000207 ± 2.6e-05
311.9 K | 0.000217 ± 2.4e-05
318.2 K | 0.000453 ± 5.2e-05
323 K | 0.000771 ± 8.7e-05
324.5 K | 0.000927 ± 0.00011

O=C1c2ccccc2-c2ccccc21 [9(9H)-fluorenone]
Details | vapor or sublimation pressure [kPa]
300.8 K | 1.21e-05 ± 4.9e-06
303.6 K | 1.69e-05 ± 6.8e-06
307.9 K | 2.79e-05 ± 1.1e-05
309.8 K | 3.65e-05 ± 1.5e-05
313 K | 5.1e-05 ± 2.1e-05
313.1 K | 5.09e-05 ± 2.1e-05
315.1 K | 6.16e-05 ± 2.5e-05
323 K | 0.000139 ± 5.6e-05
323.1 K | 0.000143 ± 5.8e-05
324.5 K | 0.000159 ± 6.4e-05
324.7 K | 0.000167 ± 6.8e-05
328.4 K | 0.000246 ± 9.9e-05
328.6 K | 0.000245 ± 9.9e-05
330.9 K | 0.000311 ± 0.00013
331.1 K | 0.000319 ± 0.00013
331.9 K | 0.000345 ± 0.00014
336.5 K | 0.000528 ± 0.00021
336.6 K | 0.00054 ± 0.00022
337.8 K | 0.000596 ± 0.00024
337.9 K | 0.000599 ± 0.00024
342.7 K | 0.000937 ± 0.00038
342.8 K | 0.000952 ± 0.00038

c1ccc2c(c1)[nH]c1cnccc12 [9H-pyrido[3,4-b]indole]
Details | vapor or sublimation pressure [kPa]
352.8 K | 5.7e-06 ± 7.4e-07
363.8 K | 1.74e-05 ± 1.9e-06
367.9 K | 2.56e-05 ± 2.9e-06
368.1 K | 2.72e-05 ± 3.1e-06
370.3 K | 3.37e-05 ± 3.9e-06
371.4 K | 4.16e-05 ± 4.7e-06
371.5 K | 4.16e-05 ± 4.7e-06
374.1 K | 5.03e-05 ± 5.7e-06
374.4 K | 5.45e-05 ± 6.1e-06
378.2 K | 7.53e-05 ± 8.4e-06
381.8 K | 0.000103 ± 1.2e-05
382 K | 0.000107 ± 1.2e-05
382.2 K | 0.000108 ± 1.2e-05
385.4 K | 0.000141 ± 1.9e-05
385.9 K | 0.000155 ± 2e-05
389.2 K | 0.000218 ± 2.4e-05
389.4 K | 0.000229 ± 2.6e-05

O=C1c2ccccc2C(=O)c2ccccc21 [9,10(9H,10H)-anthracenedione]
Details | vapor or sublimation pressure [kPa]
346 K | 4.49e-06 ± 6.7e-07
359.9 K | 2.09e-05 ± 2.3e-06
360.9 K | 2.2e-05 ± 2.4e-06
362.7 K | 2.52e-05 ± 2.9e-06
367.4 K | 4.1e-05 ± 4.6e-06
369.9 K | 5.42e-05 ± 6.5e-06
377.6 K | 0.000119 ± 1.4e-05
379.2 K | 0.000144 ± 1.6e-05
380.1 K | 0.000149 ± 1.6e-05
385.4 K | 0.000267 ± 3e-05
385.8 K | 0.000263 ± 3.3e-05
386.8 K | 0.000305 ± 3.6e-05
392.7 K | 0.000493 ± 5.4e-05
392.8 K | 0.000494 ± 5.5e-05
393.4 K | 0.000519 ± 5.8e-05
399.2 K | 0.000872 ± 0.0001
399.9 K | 0.000948 ± 0.00011

c1ccc2c(c1)Nc1ccccc1O2 [phenoxazine]
Details | vapor or sublimation pressure [kPa]
329.7 K | 2.81e-05 ± 3.5e-06
336.7 K | 5.94e-05 ± 6.8e-06
340.9 K | 0.000102 ± 1.2e-05
344.9 K | 0.000164 ± 1.9e-05
345.1 K | 0.000164 ± 1.8e-05
346.9 K | 0.000196 ± 2.2e-05
348.2 K | 0.00022 ± 2.5e-05
352.9 K | 0.000345 ± 3.9e-05
353.1 K | 0.000363 ± 4e-05
356.7 K | 0.000483 ± 5.5e-05
360.9 K | 0.000748 ± 8.5e-05
364.5 K | 0.00107 ± 0.00014

ON=C1c2ccccc2-c2ccccc21 [9-oximinofluorene]
Details | vapor or sublimation pressure [kPa]
374.5 K | 0.000175 ± 1.9e-05
376.6 K | 0.000198 ± 2.2e-05
378.5 K | 0.000231 ± 2.5e-05
382.6 K | 0.000302 ± 3.4e-05
383.2 K | 0.000317 ± 3.5e-05
386.2 K | 0.000385 ± 4.2e-05
387.9 K | 0.000428 ± 4.6e-05
389.9 K | 0.000474 ± 5.2e-05
393.8 K | 0.000613 ± 6.7e-05
395.2 K | 0.000671 ± 7.3e-05
398.6 K | 0.000816 ± 8.8e-05
